In patent US9975852B2, “Quinoline sulfonyl derivatives and uses thereof” (Health Sciences North Research Institute, priority 2013, dated 2018):

Experiments:
MCF7 cells = assay: Clonogenic assay using MCF7 cells; type: cell-based, human; conditions: for Average colony number: series with non-treated control 34
Method: The clonogenic assay was carried out as described in Santi and Lee (2011).^11
Antiproliferative activity of VR-23 was evaluated on a variety of different cell lines, alone or in combination with Bortezomib, by way of SRBSRB or clonogenic assays.

[1] = target: T1, Caspase-like proteasome activity in HeLa S3 cell lysates (Homo sapiens, UniProt P28072); assay: Proteasome activity assay, caspase-like; type: biochemical; conditions: read-out: Inhibition (IC50) Caspase-like
T1 construct: proteasomes were extracted in 0.5% NP40 buffer; endogenous in cells; host or cells: HeLa S3
Method: (§1) Exponentially growing HeLa S3 cells were plated on 96-well plates. After overnight incubation, the cells were treated with different concentrations of drugs for 6 hours or left untreated (control). At the end of 6 hours, proteasomes were extracted in 0.5% NP40 buffer, and equal amounts of samples were incubated with 25 μM of fluorogenic substrates purchased from Boston Biochem (Cambridge Mass.). (LRR-specific for trypsin-like activity, LLE-specific for caspase-like activity and SUVY-specific for chymotrypsin like activity) in black-bottom 96-well plates at 37° C. Fluorescence was monitored every 5 min at the wavelength of 360 nm (excitation) and 480 nm (emission). Chymotrypsin activity was also determined by a kit-based method (similar to described above) purchased from Caymen Biochem (Ann Arbor, Mich.), using a fluorogenic substrate specific for chymotrypsin activity.
(§2) Analysis of proteasome activity in HeLa S3 cell lysates treated with various compounds (FIG. 10). VR-23 inhibits proteasome activity. 20S proteasome activity was inhibited by 1 μM VR-23. MG132 and EGCG, known proteasome inhibitors, were used as positive controls. The PC positive control is cell lysates prepared from Jurkat cells with a high proteasome activity. “Asynchr” denote asynchronous HeLa S3 cells grown in the absence of VR-23.

[2] = target: T2, Trypsin-like proteasome activity in HeLa S3 cell lysates (Homo sapiens, UniProt Q99436); assay: Proteasome activity assay, trypsin-like; type: biochemical; conditions: read-out: Inhibition (IC50) Trypsin-like
T2 construct: proteasomes were extracted in 0.5% NP40 buffer; endogenous in cells; host or cells: HeLa S3
Method: as §1, §2

Body weight of CD-1 mice = type: in vivo; conditions: 25 mg/kg/week VR-23 i.p.
MCF10A non-cancer cells = assay: Confocal microscopy of centrosomes, MCF10A non-cancer cells; type: cell-based, human; conditions: VR-23 20 μM, 3 hours post-DT
Excerpt: All immunocytochemistry experiments were visualized by confocal microscopy using a Zeiss 510 Meta laser scanning microscope (Carl Zeiss) equipped with a 63× objective lens, unless otherwise specified herein. Three lasers were utilized for excitation with the following band pass filter settings used for detection: Argon 488 nm (band pass 505-530), HeNe 543 nm (long pass 560) and 633 nm (long pass 650). All images were captured and analyzed using LSM 510 software included with the microscope (LSM Image Examiner™, Carl Zeiss).
The synchronization at the G1/S border (more accurately at the beginning of S phase) was achieved by double thymidine block (DT). Briefly, exponentially growing cells are treated with 2.0 mM thymidine for 18 hours, followed by incubation for 11 hours in drug-free complete medium, by which time most cells are at mid-late G1 phase. The cells are then incubated for another 14 hours in 2.0 mM thymidine to arrest them at the G1/S border. To arrest cells at the G2/M phase, cells were maintained for 18 hours in complete medium containing nocodazole (50 ng/ml). Both these synchronization are reversible.
MCF10A (non-cancer breast) cells synchronized at G1/S by DT were released into complete medium for 3 hours in the absence (control) or presence of VR-23 (20 μM), followed by immunostaining with an antibody specific for cyclin E (FIG. 19A) or Plk1 or Plk4 (FIG. 19B). […]

[3] = system: MDA-MB231 human metastatic breast cancer cells; assay: Xenograft antitumor activity, ATH490 mice engrafted with MDA-MB231; type: in vivo
Method: Five-week-old female CD-1 and ATH490 (strain code 490) athymic nude mice were purchased from Charles River (Quebec, Canada). The MDA-MB231 human metastatic breast cancer cells were obtained from the American Tissue Culture Collection (ATCC, Manassas, Va., USA). Cells were maintained under humidified condition at 37° C. and 5% CO2 in DMEM high glucose medium (ATCC) supplemented with 10% fetal bovine serum and antibiotics. All animal experiments, including animal handling, care, treatment and endpoint determination, were reviewed and approved by the Laurentian University Animal Care Committee (ACC) and carried out at Laurentian University Animal Care facility (Sudbury, Ontario, Canada)
To determine anti-tumor activity of VR-23 in an animal model, a xenograft model of human breast cancer cells in athymic nude mice was established. Exponentially growing MDA-MB231 cells were harvested and counted for inoculation into mice. Each mouse was subcutaneously injected at the flank with 10×10^6 cells in 0.2 ml ice cold 1×PBS. When tumor size reached 4-5 mm in diameter (n=4-5 per group), mice were randomly assigned into five (or more) groups.

SMILES: O=[N+]([O-])c1ccc(S(=O)(=O)N2CCN(c3ccnc4cc(Cl)ccc34)CC2)c([N+](=O)[O-])c1 [Compound 1, 7-Chloro-4-(4-(2,4-dinitrophenylsulfonyl)piperazin-1-yl)quinoline]
- Survival (% of the control) (MCF7 cells; 1.5 μM of VR-23 alone): 50.3%
- Survival (% of the control) (MCF7 cells; 3.1 μM of VR-23 alone): 46.8%
- IC50 (MCF7 cells; Homo sapiens, MCF7, read-out: IC50 MCF7): 1200 ± 500 nM
- Average colony number (MCF7 cells; VR-23 at 0.37 μM): 25
- Average colony number (MCF7 cells; VR-23 at 0.75 μM): 27
- IC50 [1]: 3000 nM
- IC50 [2]: 1 nM
- Ill effects by changes in body weights (Body weight of CD-1 mice): did not show any ill effects
- Centrosome amplification in MCF10A (MCF10A non-cancer cells): did not cause centrosome amplification
- Decrease of tumor size compared to sham-treated control ([3]; VR-23 30 mg/kg twice per week i.p., three weeks): 4.6 fold
- Tumor size D0 ([3]; day 0, dosing as in Table IX B): 46.51 ± 2.82
- Tumor size D7 ([3]; day 7 post-treatment, dosing as in Table IX B): 52.74 ± 5.64
- Tumor size D15 ([3]; day 15 post-treatment, dosing as in Table IX B): 48.29 ± 17.30
- Tumor size D18 ([3]; day 18 post-treatment, dosing as in Table IX B): 42.41 ± 17.95
- Tumor size D22 ([3]; day 22 post-treatment, dosing as in Table IX B): 65.88 ± 25.92
- VEGF immunostaining of tumor ([3]; four weeks treatment): did not show any notable amount of VEGF
- Angiogenesis and spread of tumor cells ([3]; four weeks treatment, H & E): inhibited angiogenesis and the spread of tumor cells to surrounding tissue/organs
- Tumor cell proliferation (Ki-67, mitotic index) ([3]; tumor samples 15 and 29 days post-treatment): inhibited tumor cell proliferation
